In one assay the target is T1, PKC β II (Homo sapiens, UniProt P05771).
T1 construct: purchased CALBIOCHEM
As to the kind of experiment: PKC enzyme assay (BIOTRAK Protein kinase C enzyme assay system, 32P-ATP phosphorylation of peptide […]). Type of assay: biochemical. The conditions noted are these: for Ratio α/β: IC50 PKC α / IC50 PKC β II. From the text:
The method for determining the PKC inhibitory activity of the compound of the present invention is explained in the following. Inasmuch as PKCβII is present in greater number in intravascular cells than PKCβI, PKCβII was mainly used here to test the enzyme activity.
(§1) As the reagent for enzyme assay, BIOTRAK Protein kinase C enzyme assay system (hereinafter the system, Amersham), and as the PKC enzyme standard product, Protein Kinase C, Human Recombinant (CALBIOCHEM) were purchased and used in the assay. A substrate mixture was prepared by mixing calcium buffer (12 mM calcium acetate, 50 mM Tris/HCl pH 7.5, 0.05% (w/v) sodium azide), Lipid (0.3 mg/ml La-phosphatidyl-L-serine, […] phorbol 12-myristate 13-acetate, 50 mM Tris/HCl pH 7.5, 0.05% (w/v) sodium azide), peptide buffer (900 µM peptide […]), 50 mM Tris/HCl pH 7.5, 0.05% (w/v) sodium azide), DTT buffer (30 mM dithiothreitol, 50 mM Tris/HCl pH 7.5, 0.05% (w/v) sodium azide), and magnesium ATP buffer (1.2 mM ATP, […] pH 7.4, 72 mM magnesium chloride) all attached to the system in a ratio of 1:1:1:1:0.8 and adding [ y -32P]ATP (Amersham, cat. […] The PKC enzyme standard product was diluted with an assay buffer (10 mM Hepes pH 7.4, 0.01% Triton X-100) to a concentration of 400 ng/ml and used as the enzyme solution. The substrate mixture and a test substance (diluted to the final concentration of 1 nM-10 µM with dimethyl sulfoxide (DMSO)) were mixed at a ratio of 20:1. The enzyme solution was added in the amount equivalent to the substrate mixture and mixed, which was followed by incubation at 37°C for 15 minutes. The reaction terminator (300 mM orthophosphoric acid containing carmosine red) attached to the system was added in the amount equivalent to the substrate mixture to end the reaction, and the reaction mixture was spotted on a phosphocellulose paper (Whatman, P-81), washed twice with 75 mM orthophosphoric acid and assayed for radioactivity by BAS2000 (Fuji film).
(§2) The ratio of the radioactivity of the addition of the test substance to the addition of DMSO was determined, and IC50 was calculated from inhibition at each concentration.

The next assay addresses T2, PKC α (Homo sapiens, UniProt P17252).
T2 construct: purchased CALBIOCHEM
The assay is described as above. The conditions noted are these: Protein Kinase C, Human Recombinant; test substance 1 nM-10 µM; 37°C, 15 minutes; read-out: Inhibition of PKC activity IC50 PKC α. It counts as biochemical. The procedure:
as §1, §2

Where [1] appears, read: Protein Kinase C, Human Recombinant, test substance 1 nM-10 µM, 37°C, 15 minutes, read-out: Inhibition of PKC activity IC50 PKC β II.

Like-named read-outs stand apart in the source and are kept apart here.

T1 sequence (P05771 other isoform, or with tags, fused parts or gaps): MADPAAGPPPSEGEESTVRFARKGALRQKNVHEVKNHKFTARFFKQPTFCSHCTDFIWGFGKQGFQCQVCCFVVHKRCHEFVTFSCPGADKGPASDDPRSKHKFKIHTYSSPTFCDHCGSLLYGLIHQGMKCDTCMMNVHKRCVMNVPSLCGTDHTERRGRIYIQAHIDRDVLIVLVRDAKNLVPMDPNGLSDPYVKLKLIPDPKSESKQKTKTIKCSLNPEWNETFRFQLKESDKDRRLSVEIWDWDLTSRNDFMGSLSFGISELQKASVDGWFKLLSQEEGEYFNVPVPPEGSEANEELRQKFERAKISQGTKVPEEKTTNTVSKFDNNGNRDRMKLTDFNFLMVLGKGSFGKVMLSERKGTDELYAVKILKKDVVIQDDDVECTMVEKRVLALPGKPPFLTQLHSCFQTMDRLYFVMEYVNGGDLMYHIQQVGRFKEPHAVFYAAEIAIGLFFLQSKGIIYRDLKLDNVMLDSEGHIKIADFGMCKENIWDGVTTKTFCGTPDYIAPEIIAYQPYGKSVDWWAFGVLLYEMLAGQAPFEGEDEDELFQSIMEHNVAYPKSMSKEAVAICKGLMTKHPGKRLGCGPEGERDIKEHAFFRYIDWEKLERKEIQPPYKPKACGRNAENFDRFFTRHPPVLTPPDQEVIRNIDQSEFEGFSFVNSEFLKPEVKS

A word on the IC50: it is the concentration that inhibits the measured activity by half. In the case of “3-[(3-chlorophenyl)amino]-4-[1-{3-(4-hydroxymethyl-imidazol-1-yl)propyl}-1H-indol-3-yl]-1H-pyrrole-2,5-dione and 3-[(3-chlorophenyl)amino]-4-[1-{3-(5-hydroxymethyl-imidazol-1-yl)propyl}-1H-indol-3-yl]-1H-pyrrole-2,5-dione [Example 2-60]”, the “Ratio α/β” value on PKC β II stood at 48. The IC50 on PKC β II (setting [1]) is 16 nM; at PKC α, 762 nM.
For the compound `O=C1NC(=O)C(c2c[nH]c3ccccc23)=C1Nc1ccccc1` [Example 1-2, 3-(1H-indol-3-yl)-4-(phenylamino)-1H-pyrrole-2,5-dione], the IC50 on PKC β II (setting [1]) is 223 nM; on PKC α, 7230 nM.
Regarding `Cc1cccc(NC2=C(c3c[nH]c4ccccc34)C(=O)NC2=O)c1` [Example 1-5, 3-(1H-indol-3-yl)-4-[(3-methylphenyl)amino]-1H-pyrrole-2,5-dione], at PKC β II, the “Ratio α/β” value is given as 33. Also, the IC50 at PKC β II (setting [1]) amounted to 151 nM; at PKC α, 4920 nM.
As to `O=C1NC(=O)C(c2c[nH]c3ccccc23)=C1Nc1cccc(Cl)c1` [Example 1-6, 3-[(3-chlorophenyl)amino]-4-(1H-indol-3-yl)-1H-pyrrole-2,5-dione], on PKC β II, the “Ratio α/β” value is 35. Also, the half-inhibitory concentration (IC50) came out at 198 nM at PKC β II (setting [1]) and 6910 nM on PKC α.
On the same counts, the results for `O=C1NC(=O)C(c2c[nH]c3ccccc23)=C1Nc1cccc(Br)c1` [Example 1-10, 3-[(3-bromophenyl)amino]-4-(1H-indol-3-yl)-1H-pyrrole-2,5-dione] are 37, 226 nM and 8340 nM.
Turning to `O=C1NC(=O)C(c2c[nH]c3ccccc23)=C1Nc1cccc(F)c1` [Example 1-12, 3-[(3-fluorophenyl)amino]-4-(1H-indol-3-yl)-1H-pyrrole-2,5-dione], the “Ratio α/β” value on PKC β II is 29. The IC50 on PKC β II (setting [1]) was 249 nM; at PKC α, 7160 nM.
`O=C1NC(=O)C(c2cn(CCCO)c3ccccc23)=C1Nc1ccccc1` [Example 2-1, 3-[1-(3-hydroxypropyl)-1H-indol-3-yl]-4-(phenylamino)-1H-pyrrole-2,5-dione]: the “Ratio α/β” value at PKC β II is 54. In addition, the results for the IC50 at PKC β II (setting [1]) and on PKC α were 30 nM and 1620 nM, respectively.
Regarding `Cc1cccc(NC2=C(c3cn(CCCO)c4ccccc34)C(=O)NC2=O)c1` [Example 2-2, 3-[1-(3-hydroxypropyl)-1H-indol-3-yl]-4-[(3-methylphenyl)amino]-1H-pyrrole-2,5-dione], the “Ratio α/β” value at PKC β II is given as 70. The IC50 is 41 nM at PKC β II (setting [1]) and 2860 nM at PKC α.
In the case of `O=C1NC(=O)C(c2cn(CCCO)c3ccccc23)=C1Nc1cccc(Cl)c1` [Example 2-3, 3-[(3-chlorophenyl)amino]-4-[1-(3-hydroxypropyl)-1H-indol-3-yl]-1H-pyrrole-2,5-dione], on PKC β II, the “Ratio α/β” value was determined as 85. In addition, the concentration for half-maximal inhibition (IC50) on PKC β II (setting [1]) came out at 46 nM; at PKC α it was 3900 nM.
In the same order, the values of `O=C1NC(=O)C(c2cn(CCO)c3ccccc23)=C1Nc1ccccc1` [Example 2-4, 3-[1-(2-hydroxyethyl)-1H-indol-3-yl]-4-(phenylamino)-1H-pyrrole-2,5-dione] are 79, 73 nM and 5800 nM.
In the same order, the values of `O=C1NC(=O)C(c2cn(CCCCO)c3ccccc23)=C1Nc1ccccc1` [Example 2-5, 3-[1-(4-hydroxybutyl)-1H-indol-3-yl]-4-(phenylamino)-1H-pyrrole-2,5-dione] are 61, 30 nM and 1830 nM.
Consider `O=C1NC(=O)C(c2cn(CCCO)c3ccccc23)=C1Nc1ccc(Cl)c(Cl)c1` [Example 2-6, 3-[(3,4-dichlorophenyl)amino]-4-[1-(3-hydroxypropyl)-1H-indol-3-yl]-1H-pyrrole-2,5-dione], for which, on PKC β II, the “Ratio α/β” value is reported as 55. Moreover, the IC50 amounted to 60 nM at PKC β II (setting [1]) and 3310 nM at PKC α.
On the same counts, the results for `CC(=O)OCCn1cc(C2=C(Nc3ccccc3)C(=O)NC2=O)c2ccccc21` [Example 2-7, 3-[1-(2-acetoxyethyl)-1H-indol-3-yl]-4-(phenylamino)-1H-pyrrole-2,5-dione] are 57, 56 nM and 3170 nM.
As to `CN(C)CCCn1cc(C2=C(Nc3ccccc3)C(=O)NC2=O)c2ccccc21` [Example 2-8, 3-[1-(3-dimethylaminopropyl)-1H-indol-3-yl]-4-(phenylamino)-1H-pyrrole-2,5-dione], the “Ratio α/β” value on PKC β II amounted to 38. Also, the IC50 came to 12 nM at PKC β II (setting [1]) and 460 nM at PKC α.
On the same counts, the results for `CN(C)CCn1cc(C2=C(Nc3ccccc3)C(=O)NC2=O)c2ccccc21` [Example 2-9, 3-[1-(2-dimethylaminoethyl)-1H-indol-3-yl]-4-(phenylamino)-1H-pyrrole-2,5-dione] are 77, 28 nM and 2160 nM.
Take `CN(C)CCCCn1cc(C2=C(Nc3ccccc3)C(=O)NC2=O)c2ccccc21` [Example 2-10, 3-[1-(4-dimethylaminobutyl)-1H-indol-3-yl]-4-(phenylamino)-1H-pyrrole-2,5-dione]: on PKC β II, the “Ratio α/β” value came out at 49. Further, the half-maximal inhibitory concentration (IC50) was determined as 15 nM at PKC β II (setting [1]) and 730 nM at PKC α.
For the compound `Cc1cccc(NC2=C(c3cn(CCCN(C)C)c4ccccc34)C(=O)NC2=O)c1` [Example 2-11, 3-[1-(3-dimethylaminopropyl)-1H-indol-3-yl]-4-[(3-methylphenyl)amino]-1H-pyrrole-2,5-dione], on PKC β II, the “Ratio α/β” value is 49. In addition, the half-maximal inhibitory concentration (IC50) stood at 15 nM on PKC β II (setting [1]) and 727 nM at PKC α.
For `CN(C)CCCn1cc(C2=C(Nc3cccc(Cl)c3)C(=O)NC2=O)c2ccccc21` [Example 2-12, 3-[1-(3-dimethylaminopropyl)-1H-indol-3-yl]-4-[(3-chlorophenyl)amino]-1H-pyrrole-2,5-dione], the “Ratio α/β” value on PKC β II is on record as 56. Also, the values for the IC50 on PKC β II (setting [1]) and on PKC α were 10 nM and 558 nM, respectively.
In the same order, the values of `CCN(CC)CCCn1cc(C2=C(Nc3ccccc3)C(=O)NC2=O)c2ccccc21` [Example 2-13, 3-[1-(3-diethylaminopropyl)-1H-indol-3-yl]-4-(phenylamino)-1H-pyrrole-2,5-dione] are 60, 21 nM and 1260 nM.
On the same counts, the results for `CN(C)CCN(C)CCCn1cc(C2=C(Nc3ccccc3)C(=O)NC2=O)c2ccccc21` [Example 2-14, 3-[1-{3-[N-(2-dimethylaminoethyl)-N-methylamino)propyl}-1H-indol-3-yl]-4-(phenylamino)-1H-pyrrole-2,5-dione] are 70, 40 nM and 2790 nM.
On the same counts, the results for `CCN(CCCn1cc(C2=C(Nc3ccccc3)C(=O)NC2=O)c2ccccc21)CCOC` [Example 2-15, 3-[1-{3-[N-ethyl-N-(2-methoxyethyl)amino]propyl}-1H-indol-3-yl]-4-(phenylamino)-1H-pyrrole-2,5-dione] are 77, 35 nM and 2680 nM.
With `CN(C)CCN(C)CCn1cc(C2=C(Nc3ccccc3)C(=O)NC2=O)c2ccccc21` [Example 2-16, 3-[1-{2-[N-(2-dimethylaminoethyl)-N-methylamino]ethyl}-1H-indol-3-yl]-4-(phenylamino)-1H-pyrrole-2,5-dione], the “Ratio α/β” value at PKC β II worked out at 79. The IC50 at PKC β II (setting [1]) was determined as 80 nM; at PKC α, 6290 nM.
Turning to `CCN(CCCn1cc(C2=C(Nc3ccccc3)C(=O)NC2=O)c2ccccc21)Cc1ccccc1` [Example 2-17, 3-[1-{3-(N-benzyl-N-ethylamino)propyl}-1H-indol-3-yl)-4-(phenylamino)-1H-pyrrole-2,5-dione], the “Ratio α/β” value on PKC β II came to 45. The results for the half-inhibitory concentration (IC50) on PKC β II (setting [1]) and at PKC α were 103 nM and 4630 nM, respectively.
`O=C1NC(=O)C(c2cn(CCCN3CCCCCC3)c3ccccc23)=C1Nc1ccccc1` [Example 2-23, 3-[1-(3-azacycloheptan-1-ylpropyl)-1H-indol-3-yl]-4-(phenylamino)-1H-pyrrole-2,5-dione] showed a half-inhibitory concentration (IC50) against PKC β II of 10 nM.

Source of the values: EP1120414A1, “DISUBSTITUTED MALEIMIDE COMPOUNDS AND MEDICINAL UTILIZATION THEREOF” (Japan Tobacco Inc., priority 1998, dated 2000).
